In publication PMC9613470, “Diverse MarR bacterial regulators of auxin catabolism in the plant microbiome” (Nature Microbiology, 2022):
Like-named read-outs stand apart in the source and are kept apart here.

Assays:
[1] = target: Variovorax paradoxus CL14 MarR_73 (Variovorax paradoxus, UniProt C5CSP2); test: biochemical; type: binding
Experimental: The coding sequence for each gene can be found in Supplementary Table 10. MarR expression plasmids were synthesized as codon-optimized genes for E. coli expression by BioBasic in the pLIC-His N-term vector (pMCSG7) and transformed into E. coli BL21 (DE3) Gold cells for expression. […] At an OD600 of 0.8, protein expression was induced by the addition of 0.1 mM IPTG and incubation continued overnight. Cells were collected by centrifugation at 4,500 × g for 20 min at 4 °C in a Sorvall (model RC-3B) swinging bucket centrifuge. Cell pellets were resuspended in buffer A (20 mM potassium phosphate, pH 7.4, 50 mM imidazole, 500 mM NaCl), DNase, lysozyme and a Roche Complete EDTA-free protease inhibitor tablet. Resuspended cells were sonicated and clarified via centrifugation at 17,000 × g for 60 min in a Sorvall (model RC-5B) swinging bucket centrifuge. The lysate was applied to a nickel-nitrilotriacetic acid HP column (GE Healthcare) on an Aktaxpress Fast Performance Liquid Chromatography (FPLC) system (Amersham Bioscience) and washed with buffer A. Protein was eluted with buffer B (20 mM potassium phosphate, pH 7.4, 500 mM imidazole, 500 mM NaCl). Fractions containing the protein of interest were combined and passed over a HiLoadTM 16/60 SuperdexTM 200 gel filtration column. Proteins were eluted in S200 buffer (20 mM HEPES, pH 7.4, 300 mM NaCl). Fractions were combined and concentrated for long-term storage at −80 °C.
All ITC measurements were performed at 25 °C using an Auto-ITC200 microcalorimeter (MicroCal/GE Healthcare). The buffer employed was 20 mM HEPES, pH 7.4, 50 mM NaCl and 0.5% dimethly sulfoxide (DMSO) for protein/ligand binding and 20 mM HEPES, pH 7.4 and 300 mM NaCl for DNA/protein binding experiments. For ligand binding experiments, the calorimetry cell (volume […]) was loaded with MarR wild-type, mutant or homologue protein at a concentration of 50 μM. The syringe was loaded with a ligand concentration of 0.5 or 2 mM. […] A typical injection protocol included a single 0.2 μl first injection followed by 20 1.5 μl injections of the syringe sample into the calorimetry cell. The spacing between injections was kept at 180 s and the reference power at 8 μcal s^−1. […] Two independent ITC measurements were performed for each condition.

[2] = test system: Variovorax paradoxus CL14 MarR_73 S28A; test: ITC binding of duplex oligo DNA to MarR_73 S28A
[3] = ITC, 25 °C, 20 mM HEPES pH 7.4, 50 mM NaCl, 0.5% DMSO, mean of two measurements ± standard error
[4] = ITC, 25 °C, 20 mM HEPES pH 7.4, 300 mM NaCl
[5] = ITC, 25 °C, 20 mM HEPES pH 7.4, 300 mM NaCl, duplex oligo in cell, protein in syringe

Sequence of Variovorax paradoxus CL14 MarR_73 (C5CSP2 entry or part of it): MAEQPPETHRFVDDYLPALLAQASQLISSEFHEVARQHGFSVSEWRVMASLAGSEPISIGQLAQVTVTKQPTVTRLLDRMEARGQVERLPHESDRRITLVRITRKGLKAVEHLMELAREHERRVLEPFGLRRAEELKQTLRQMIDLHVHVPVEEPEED
Sequence of Variovorax paradoxus CL14 MarR_73 S28A (as listed by the source, stated change not applied): as the sequence (C5CSP2 entry or part of it) above, with S28A counted along it

| Compound | Kd [1] [µM] | N (ligand binding stoichiometry to the MarR monomer) [1, 3] | also measured |
| --- | --- | --- | --- |
| O=C(O)Cc1cccc2ccccc12 [1-Naphthaleneacetic Acid] | 0.33 ± 0.01 | 0.74 ± 0.01 | – |
| O=C(O)COc1ccc(Cl)cc1Cl [2,4-Dichorophenoxyacetic Acid] | – | 1.40 ± 0.01 | Kd ([1]; ITC, 25 °C, 20 mM HEPES pH 7.4, 50 mM NaCl, 0.5% DMSO, mean of two measurements ± standard error, read-out: KD): 11 ± 1 µM |
| O=C(O)Cc1c[nH]c2ccc(O)cc12 [5-Hydroxyindole-3-Acetic Acid] | 10 ± 0.3 | 0.78 ± 0.25 | – |
| O=C(O)c1ccccc1 [Benzoic Acid] | 13 ± 1 | 0.80 ± 0.01 | – |
| Oc1ccccc1O [Catachol (1,2-Dihydroxybenzene), 1,2-Dihydroxybenzene] | 13 ± 0.1 | 0.76 ± 0.01 | – |
| O=C(O)CCCc1c[nH]c2ccccc12 [Indole-3-Butyric Acid] | 18 ± 1 | 0.80 ± 0.01 | – |
| O=C(O)c1c[nH]c2ccccc12 [Indole-3-Carboxylic Acid] | 4.6 ± 0.5 | 0.67 ± 0.03 | – |
| O=C(O)CCc1c[nH]c2ccccc12 [Indole-3-propionic Acid] | 17 ± 0.1 | 0.81 ± 0.05 | – |
| O=C(O)Cc1ccccc1 [Phenylacetic Acid] | 10 ± 0.1 | 0.79 ± 0.02 | – |
| Nc1c(Cl)c(Cl)nc(C(=O)O)c1Cl [Picloram] | 16 ± 0.4 | 0.96 ± 0.01 | – |
| O=C(O)c1ccccc1O [Salicylic Acid] | 14 ± 3 | 0.90 ± 0.01 | – |
| AATTCATGATTGTGGATACATT: 22 bp duplex oligo DNA, sequence between genes 73 and 72 (antisense TTAAGTACTAACACCTATGTAA; chemistry not fully specified; one strand is listed 3' to 5') | – | – | Kd ([2]; ITC in 150 mM NaCl): 0.428 ± 0.002 µM; N ([2]; ITC in 150 mM NaCl): 1.75 ± 0.014; N (MarR monomer binding stoichiometry to duplex DNA) [2, 4]: 2.1 ± 0.3; Kd [2, 5]: 0.52 ± 0.09 µM |
| AATTCATGATTGTGGATACATTCA: 24 bp MarR_73 DNA binding sequence between genes 73 and 72 (antisense TTAAGTACTAACACCTATGTAAGT; chemistry not fully specified; one strand is listed 3' to 5') | – | – | Kd ([2]; ITC in 150 mM NaCl): 0.151 ± 0.025 µM; N ([2]; ITC in 150 mM NaCl): 2.51 ± 0.26; N (MarR monomer binding stoichiometry to duplex DNA) [2, 4]: 2.5 ± 0.2; Kd [2, 5]: 0.21 ± 0.09 µM |
| GTAATTCATGATTGTGGATACATTCATTTG: 30 bp duplex oligo DNA, sequence between genes 73 and 72 of the Variovorax IAA degradation locus (antisense CATTAAGTACTAACACCTATGTAAGTAAAC; chemistry not fully specified; one strand is listed 3' to 5') | – | – | N (MarR monomer binding stoichiometry to duplex DNA) [2, 4]: 2.0 ± 0.1; Kd [2, 5]: 0.27 ± 0.02 µM |
